Data from PubChem BioAssay (NCI).
Where “and” joins values, the source holds several entries; their conditions need not be identical. Equal entries are not always repeated.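 Interpolation was linear, between the two tested concentrations surrounding the appropriate level; five concentrations were tested over 48 hours in 96-well plates. GI50 = concentration required for 50% inhibition of growth. At the TGI there is no net growth.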

Tests used:
Experiment in all cases: NCI tumour cell line growth inhibition, 48 h
[1] = tested on: SR leukemia
[2] = tested on: NCI-H460 lung
[3] = tested on: MDA-MB-435
[4] = tested on: MDA-MB-231 breast
[5] = tested on: SNB-19 CNS
[6] = tested on: RPMI-8226 leukemia
[7] = tested on: HCT-15 colon
[8] = tested on: COLO 205 colon
[9] = tested on: SK-MEL-5 melanoma
[10] = tested on: DU-145 prostate

C#C[C@@]1(O)[C@@H](CO)O[C@@H](n2ccc3c(N)ncnc32)[C@@H]1O was tested, and the GI50 [1] was 817 nM, the TGI [1] was > 100 µM and the GI50 [2] was 473 nM. The TGI [2] was 10.6 µM, the GI50 [3] was 1480 nM and the TGI [3] was 3.49 µM. It also gave a GI50 [4] of 1530 nM, a TGI [4] of 5.89 µM and a GI50 [5] of 1.62 µM. For the same molecule, the TGI [5] was 6.61 µM, the GI50 [6] was 777 nM and the TGI [6] was > 100 µM. It also gave a GI50 [7] of 892 nM, a TGI [7] of 4.62 µM and a GI50 [8] of 679 nM. For the same molecule, the TGI [8] was 2.67 µM, the GI50 [9] was 1560 nM and the TGI [9] was 2.96 µM. For the same molecule, the GI50 [10] was 563 nM and the TGI [10] was 6.56 µM.
CCN(C(=O)CCl)C(C)(C)C(SSSC(c1ccc(Cl)cc1)C(C)(C)N(CC)C(=O)CCl)c1ccc(Cl)cc1 (centres undefined) showed a GI50 [1] of 2320 nM, a TGI [1] of 5.15 µM and a GI50 [2] of 7340 nM. The TGI [2] was 20.9 µM, the GI50 [3] was 2140 nM and the TGI [3] was 5.49 µM. For the same molecule, the GI50 [4] was 3580 nM, the TGI [4] was 14.6 µM and the GI50 [5] was 13.9 µM. It also gave a TGI [5] of 30.3 µM, a GI50 [6] of 3990 nM and a TGI [6] of 18.2 µM. The GI50 [7] was 2840 nM, the TGI [7] was 12.8 µM and the GI50 [8] was 7210 nM. For the same molecule, the TGI [8] was 24.8 µM, the GI50 [9] was 6920 nM and the TGI [9] was 20.2 µM. The GI50 [10] was 11500 nM and the TGI [10] was 24.2 µM.
CC1(C)N=C(N)N=C(N)N1c1cccc(CCCCc2ccccc2)c1 gave a GI50 [1] of 188 nM, a TGI [1] of 2.89 µM and a GI50 [2] of 49.3 nM. It also gave a TGI [2] of 11.4 µM, a GI50 [3] of 61.6 nM and a TGI [3] of 11.9 µM. For the same molecule, the GI50 [4] was 2470 nM, the TGI [4] was 21.3 µM and the GI50 [5] was 0.907 µM. The TGI [5] was 16.6 µM, the GI50 [6] was 289 nM and the TGI [6] was 2.72 µM. For the same molecule, the GI50 [7] was 1730 nM, the TGI [7] was 21.7 µM and the GI50 [8] was 448 nM. It also gave a TGI [8] of 2.36 µM, a GI50 [9] of 198 nM and a TGI [9] of 1.36 µM. The GI50 [10] was 351 nM and the TGI [10] was 15 µM.
With ClC1=NC(Cl)C(Cl)=N/C1=N\c1ncn[nH]1 (centres undefined) the GI50 [1] was 1300 nM, the TGI [1] was 3.63 µM and the GI50 [2] was 3650 nM. It also gave a TGI [2] of 14.9 µM, a GI50 [3] of 2240 nM and a TGI [3] of 6.01 µM. It also gave a GI50 [4] of 1790 nM, a TGI [4] of 3.55 µM and a GI50 [5] of 11.8 µM. For the same molecule, the TGI [5] was 25.4 µM, the GI50 [6] was 1970 nM and the TGI [6] was 4.43 µM. For the same molecule, the GI50 [7] was 1950 nM, the TGI [7] was 4.68 µM and the GI50 [8] was 2280 nM. For the same molecule, the TGI [8] was 4.55 µM, the GI50 [9] was 5570 nM and the TGI [9] was 18.7 µM. The GI50 [10] was 1900 nM and the TGI [10] was 3.43 µM.
With Nc1ncnc2c(C3OC(CO)C(O)C3O)[nH]nc12 (centres undefined) the GI50 [1] was 34.7 nM, the GI50 [2] was 43.4 nM and the TGI [2] was 2.12 µM and 1.44 µM. For the same molecule, the GI50 [3] was 356 nM, the TGI [3] was 8.42 µM and the GI50 [4] was 21.8 nM. The TGI [4] was 0.0705 µM, the GI50 [5] was 0.138 µM and the TGI [5] was 3.68 µM and 24.8 µM. The TGI [6] was 3.96 µM, the GI50 [7] was 38.3 nM and 44.4 nM and the TGI [7] was 0.156 µM. For the same molecule, the GI50 [8] was 2990 nM, the TGI [8] was 15.7 µM and 11.7 µM and the GI50 [9] was 984 nM. The TGI [9] was 10.9 µM and 7.47 µM, the GI50 [10] was 12.5 nM and the TGI [10] was 0.278 µM.
Molecule CN(C)C(=O)c1cc2cnc(Nc3ccc(-c4csc5c(=O)cc(N6CCNCC6)oc45)cc3)nc2n1C1CCCC1 has a GI50 [1] of 231 nM, a TGI [1] of 2.44 µM and a GI50 [2] of 814 nM. It also gave a TGI [2] of 2.35 µM, a GI50 [3] of 940 nM and a TGI [3] of 6.61 µM. The GI50 [4] was 710 nM, the TGI [4] was 2.24 µM and the GI50 [5] was 0.551 µM. The TGI [5] was 2.62 µM, the GI50 [6] was 453 nM and the TGI [6] was 2.74 µM. The GI50 [7] was 1840 nM, the TGI [7] was 5.79 µM and the GI50 [8] was 671 nM. For the same molecule, the TGI [8] was 4.64 µM, the GI50 [9] was 1180 nM and the TGI [9] was 2.51 µM. The GI50 [10] was 1010 nM and the TGI [10] was 2.5 µM.
O=C(O)c1ccc(NCc2nc3cc4ccccc4cc3[nH]2)cc1 was tested, and the TGI [1] was > 100 µM, the TGI [2] was > 100 µM and the TGI [3] was > 100 µM. The TGI [4] was > 100 µM, the TGI [5] was > 100 µM and the TGI [6] was > 100 µM. For the same molecule, the TGI [7] was > 100 µM, the TGI [8] was > 100 µM and the TGI [9] was > 72.7 µM. For the same molecule, the TGI [10] was > 100 µM.
In the case of N#CSCc1c(Cl)cccc1Cl, the TGI [1] is reported as > 24 µM, the GI50 [2] is reported as 4290 nM and the TGI [2] is reported as > 53.4 µM. It also gave a GI50 [3] of 2110 nM, a TGI [3] of 5.63 µM and a GI50 [4] of 3430 nM. For the same molecule, the TGI [4] was > 63.5 µM, the GI50 [5] was 32.3 µM and the TGI [5] was > 100 µM. For the same molecule, the GI50 [6] was < 50.6 nM, the TGI [6] was 1.33 µM and the GI50 [7] was 2960 nM. For the same molecule, the TGI [7] was > 100 µM, the GI50 [8] was 2340 nM and the TGI [8] was 4.97 µM. The GI50 [9] was 4500 nM, the TGI [9] was 21.2 µM and the GI50 [10] was 2740 nM. For the same molecule, the TGI [10] was 5.71 µM.
With N#Cc1cccc(/C=C(/C(=O)c2ccccc2)c2ccccc2)c1 the GI50 [1] was 2940 nM, the TGI [1] was > 100 µM and the GI50 [2] was 3850 nM. For the same molecule, the TGI [2] was 19.6 µM, the GI50 [3] was 3000 nM and the TGI [3] was 11 µM. The GI50 [4] was 4250 nM, the TGI [4] was > 100 µM and the GI50 [5] was 5.07 µM. It also gave a TGI [5] of 19.9 µM, a GI50 [6] of 2820 nM and a TGI [6] of 9.27 µM. For the same molecule, the GI50 [7] was 3400 nM, the TGI [7] was 22.8 µM and the GI50 [8] was 5300 nM. The TGI [8] was 20 µM, the GI50 [9] was 4040 nM and the TGI [9] was 15.6 µM. For the same molecule, the GI50 [10] was 3360 nM and the TGI [10] was 10.2 µM.
With C/C(=N\NC(=O)c1ccccc1O)c1cccc(/C(C)=N/NC(=O)c2ccccc2O)n1 the TGI [1] was > 100 µM, the GI50 [2] was 535 nM and the TGI [2] was 74.1 µM and > 100 µM. For the same molecule, the GI50 [3] was 767 nM, the TGI [3] was > 100 µM and the GI50 [4] was 10600 nM. The TGI [4] was > 100 µM, the TGI [5] was 74.2 µM and > 100 µM and the GI50 [6] was > 100000 nM. For the same molecule, the TGI [6] was > 100 µM, the GI50 [7] was 568 nM and the TGI [7] was > 100 µM. For the same molecule, the TGI [8] was > 100 µM, the GI50 [9] was 621 nM and the TGI [9] was 44.9 µM and > 48 µM. The GI50 [10] was 10700 nM and the TGI [10] was > 100 µM and 31.3 µM.
COc1ccc2[nH]c(=O)c(/C=C/C(=O)/C=C/c3ccc(O)c(OC)c3)cc2c1 was tested, and the GI50 [1] was 381 nM, the TGI [1] was > 100 µM and the GI50 [2] was 2040 nM. For the same molecule, the TGI [2] was 5 µM, the GI50 [3] was 301 nM and the TGI [3] was 1.3 µM. For the same molecule, the GI50 [4] was 1920 nM, the TGI [4] was 3.78 µM and the GI50 [5] was 1.67 µM. It also gave a TGI [5] of 3.92 µM, a GI50 [6] of 359 nM and a TGI [6] of 1.65 µM. For the same molecule, the GI50 [7] was 1410 nM, the TGI [7] was 3.81 µM and the GI50 [8] was 1600 nM. For the same molecule, the TGI [8] was 3.81 µM, the GI50 [9] was 1770 nM and the TGI [9] was 3.27 µM. It also gave a GI50 [10] of 1690 nM and a TGI [10] of 3.5 µM.
In the case of O=C(NC(=S)NNC(=S)NNc1ccccc1)c1ccccc1, the GI50 [1] is reported as 3700 nM, the TGI [1] is reported as > 100 µM and the GI50 [2] is reported as 3720 nM. The TGI [2] was > 100 µM, the GI50 [3] was 3470 nM and the TGI [3] was > 100 µM. The GI50 [4] was 12900 nM, the TGI [4] was > 100 µM and the GI50 [5] was 13 µM. The TGI [5] was > 100 µM, the GI50 [6] was 3550 nM and the TGI [6] was > 100 µM. For the same molecule, the GI50 [7] was 5210 nM, the TGI [7] was > 100 µM and the GI50 [8] was 9810 nM. For the same molecule, the TGI [8] was > 100 µM, the GI50 [9] was 3730 nM and the TGI [9] was > 100 µM. The GI50 [10] was 44100 nM and the TGI [10] was > 100 µM.
S=C=NCc1ccccc1 showed a TGI [1] of 12.1 µM, a TGI [2] of 24.5 µM and a TGI [3] of 8.33 µM. For the same molecule, the TGI [4] was 5.14 µM, the TGI [5] was 13.1 µM and the TGI [6] was > 100 µM. For the same molecule, the TGI [7] was 11.1 µM, the TGI [8] was 4.78 µM and the TGI [9] was 7.76 µM. The TGI [10] was > 41.2 µM.
